Source: patent publication US7704995B2 (Exelixis, Inc., priority 2003, dated 2010)

The molecules below were run against T1, Chk1 (Homo sapiens, UniProt O14757) (assay: Chk1 kinase assay: incorporation of γ-33P ATP into immobilized myelin basic protein). Settings: Table 11, Chk1 only; class symbols A-D; read-out: Chk1 IC50.
T1 construct: purchased Upstate Biotechnology
T1 sequence (O14757 1-476): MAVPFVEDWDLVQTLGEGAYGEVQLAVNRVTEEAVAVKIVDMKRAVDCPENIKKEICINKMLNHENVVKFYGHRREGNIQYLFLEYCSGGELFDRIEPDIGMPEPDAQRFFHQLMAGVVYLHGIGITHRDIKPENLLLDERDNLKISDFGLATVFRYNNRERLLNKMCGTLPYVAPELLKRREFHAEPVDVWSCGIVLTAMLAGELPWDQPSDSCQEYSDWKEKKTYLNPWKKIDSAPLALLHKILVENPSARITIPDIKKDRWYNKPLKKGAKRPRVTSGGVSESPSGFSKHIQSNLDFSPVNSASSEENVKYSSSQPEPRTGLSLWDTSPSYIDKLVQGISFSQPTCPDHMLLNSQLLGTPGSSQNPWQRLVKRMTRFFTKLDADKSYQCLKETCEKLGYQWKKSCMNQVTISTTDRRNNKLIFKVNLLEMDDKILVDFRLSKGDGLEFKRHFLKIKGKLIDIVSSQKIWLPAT
Format: biochemical
Method in brief: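 Read-out is scintillation counting of 33P incorporated into plate-bound myelin basic protein. Chk1 runs at 10 nM enzyme with 10 μM ATP, Chk2 at 20 nM with 30 μM ATP, each for 1 hour at room temperature. Duplicate points; IC50 taken as 50% activity reduction, Ki computed from IC50.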

| Compound | IC50 [µM] |
| --- | --- |
| Cc1cc(Cl)ccc1CNC(=O)c1cccc(-c2cnc(N)c(C(=O)N[C@H]3CCCNC3)n2)c1 [Example 857, 3-amino-6-[3-({[(4-chloro-2-methylphenyl)methyl]amino}carbonyl)phenyl]-N-[(3S)-piperidin-3-yl]pyrazine-2-carboxamide] | < 0.05 |
| Nc1ncc(-c2cccc(CNC(=O)Nc3ccc(F)cc3)c2)nc1C(=O)N[C@H]1CCCNC1 [Example 958, 3-amino-6-{3-[({[(4-fluorophenyl)amino]carbonyl}amino)methyl]phenyl}-N-[(3S)-piperidin-3-yl]pyrazine-2-carboxamide] | < 0.05 |
| Nc1ncc(-c2cccc(C(=O)NCc3cc(F)cc(Br)c3)c2)nc1C(=O)N[C@H]1CCCNC1 [Example 1032, 3-amino-6-[3-({[(3-bromo-5-fluorophenyl)methyl]amino}carbonyl)phenyl]-N-[(3S)-piperidin-3-yl]pyrazine-2-carboxamide] | < 0.05 |
| Nc1ncc(-c2cccc(NC(=O)Cc3c(Cl)cccc3Cl)c2)nc1C(=O)N[C@H]1CCCNC1 [Example 886, 3-amino-6-(3-{[(2,6-dichlorophenyl)acetyl]amino}phenyl)-N-[(3S)-piperidin-3-yl]pyrazine-2-carboxamide] | < 0.05 |
| Nc1ncc(-c2cccc(C(=O)N[C@@H]3CCNC3)c2)nc1C(=O)N[C@H]1CCCNC1 [Example 876, 3-amino-N-[(3S)-piperidin-3-yl]-6-(3-{[(3R)-pyrrolidin-3-ylamino]carbonyl}phenyl)pyrazine-2-carboxamide] | < 0.05 |
| CC(C)(C)OC(=O)N1CCC[C@H](NC(=O)c2nc(-c3cccc(CN)c3)cnc2N)C1 [Example 841, 1,1-dimethylethyl (3S)-3-[({3-amino-6-[3-(aminomethyl)phenyl]pyrazin-2-yl}carbonyl)amino]piperidine-1-carboxylate] | 0.05 to 1 |
| Nc1ncc(-c2cccc(CNC(=O)Nc3ccccc3OC(F)(F)F)c2)nc1C(=O)N[C@H]1CCCNC1 [Example 919, 3-amino-N-[(3S)-piperidin-3-yl]-6-[3-({[({2-[(trifluoromethyl)oxy]phenyl}amino)carbonyl]amino}methyl)phenyl]pyrazine-2-carboxamide] | 0.05 to 1 |

Other lines, results leading:

| IC50 [µM] | Compound |
| --- | --- |
| < 0.05 | Nc1ncc(-c2cccc(C(=O)NCc3cc(C(F)(F)F)ccc3F)c2)nc1C(=O)N[C@H]1CCCNC1 [Example 998, 3-amino-6-{3-[({[2-fluoro-5-(trifluoromethyl)phenyl]methyl}amino)carbonyl]phenyl}-N-[(3S)-piperidin-3-yl]pyrazine-2-carboxamide] |
| < 0.05 | Nc1ncc(-c2cccc(NC(=O)Cc3ccc(Cl)cc3)c2)nc1C(=O)N[C@H]1CCCNC1 [Example 885, 3-amino-6-(3-{[(4-chlorophenyl)acetyl]amino}phenyl)-N-[(3S)-piperidin-3-yl]pyrazine-2-carboxamide] |
| < 0.05 | Nc1ncc(-c2cccc(C(=O)NCc3ccc(F)c(Cl)c3)c2)nc1C(=O)N[C@H]1CCCCNC1 [Example 1023, 3-amino-N-[(3S)-azepan-3-yl]-6-[3-({[(3-chloro-4-fluorophenyl)methyl]amino}carbonyl)phenyl]pyrazine-2-carboxamide] |
| < 0.05 | Nc1ncc(-c2cccc(CNC(=O)c3cccs3)c2)nc1C(=O)N[C@H]1CCCNC1 [Example 938, 3-amino-N-[(3S)-piperidin-3-yl]-6-(3-{[(2-thienylcarbonyl)amino]methyl}phenyl)pyrazine-2-carboxamide] |

Same assay, conditions: Table 11; Chk1 only; read-out: Chk1 IC50

| Compound | IC50 [µM] |
| --- | --- |
| Nc1ncc(-c2cccc(C(=O)NCc3ccccc3)c2)nc1C(=O)NCCNC(=O)c1cccnc1Cl [Example 664, 3-amino-N-(2-{[(2-chloropyridin-3-yl)carbonyl]amino}ethyl)-6-(3-{[(phenylmethyl)amino]carbonyl}phenyl)pyrazine-2-carboxamide] | 1 to 10 |
| C/C(=N\Nc1nc2ccccc2s1)c1nc(-c2cccc(C(=O)NCc3ccccc3)c2)cnc1N [Example 601, 3-{5-amino-6-[(1E)-N-1,3-benzothiazol-2-ylethanehydrazonoyl]pyrazin-2-yl}-N-(phenylmethyl)benzamide] | ≥ 10 |
| CNC(=O)c1cc(-c2cccc(CN[C@H]3CCc4ccccc43)c2)cnc1N [Example 509, 2-amino-5-(3-{[(1S)-2,3-dihydro-1H-inden-1-ylamino]methyl}phenyl)-N-methylpyridine-3-carboxamide] | 0.05 to 1 |
| Nc1ncc(-c2cccc(C(=O)NCc3ccccc3)c2)nc1C(=O)N1CCOCC1 [Example 566, 3-[5-amino-6-(morpholin-4-ylcarbonyl)pyrazin-2-yl]-N-(phenylmethyl)benzamide] | 1 to 10 |
| CNC(=O)c1cc(-c2cccc(CNC3CCc4ccc(Br)cc43)c2)cnc1N (centres unmarked) [Example 519, 2-amino-5-(3-{[(6-bromo-2,3-dihydro-1H-inden-1-yl)amino]methyl}phenyl)-N-methylpyridine-3-carboxamide] | 0.05 to 1 |
| CNC(=O)c1nc(-c2cccc(C(=O)NNc3c(F)c(F)cc(F)c3F)c2)cnc1N [Example 434, 3-amino-N-methyl-6-(3-{[2-(2,3,5,6-tetrafluorophenyl)hydrazino]carbonyl}phenyl)pyrazine-2-carboxamide] | 0.05 to 1 |
| Nc1ncc(-c2cccc(C(=O)N[C@H]3CCc4ccccc43)c2)nc1C(=O)N[C@@H]1CCCNC1 [Example 765, 3-amino-6-(3-{[(1S)-2,3-dihydro-1H-inden-1-ylamino]carbonyl}phenyl)-N-[(3R)-piperidin-3-yl]pyrazine-2-carboxamide] | < 0.05 |
| CNC(=O)c1nc(-c2cccc(CN[C@@H]3CCc4cc(-c5ccccc5)ccc4C3)c2)cnc1N [Example 497, 3-amino-N-methyl-6-[3-({[(2R)-6-phenyl-1,2,3,4-tetrahydronaphthalen-2-yl]amino}methyl)phenyl]pyrazine-2-carboxamide] | 0.05 to 1 |

Second part, the molecule after the results:

| IC50 [µM] | Compound |
| --- | --- |
| 0.05 to 1 | CN1CC[C@H](NC(=O)c2nc(-c3cccc(C(=O)N[C@H]4CCc5ccccc54)c3)cnc2N)C1 [Example 804, 3-amino-6-(3-{[(1S)-2,3-dihydro-1H-inden-1-ylamino]carbonyl}phenyl)-N-[(3S)-1-methylpyrrolidin-3-yl]pyrazine-2-carboxamide] |
| < 0.05 | CNC(=O)c1nc(-c2cccc(CNC3Cc4cccc(F)c4C3)c2)cnc1N (centres unmarked) [Example 466, 3-amino-6-(3-{[(4-fluoro-2,3-dihydro-1H-inden-2-yl)amino]methyl}phenyl)-N-methylpyrazine-2-carboxamide] |
| ≥ 10 | CN(C)c1ccc(C(=O)c2nc(-c3cccc(C(=O)NCc4ccccc4)c3)cnc2N)cc1 [Example 589, 3-(5-amino-6-{[4-(dimethylamino)phenyl]carbonyl}pyrazin-2-yl)-N-(phenylmethyl)benzamide] |
| ≥ 10 | N=C(N)N/N=C/c1nc(-c2cccc(C(=O)NCc3ccccc3)c2)cnc1N [Example 676, 3-[5-amino-6-((E)-{[amino(imino)methyl]hydrazono}methyl)pyrazin-2-yl]-N-(phenylmethyl)benzamide] |
| 1 to 10 | Nc1ncc(-c2cccc(C(=O)N[C@H]3CCc4ccccc43)c2)nc1C(=O)N[C@H]1CCN(C(=O)c2ccco2)C1 [Example 646, 3-amino-6-(3-{[(1S)-2,3-dihydro-1H-inden-1-ylamino]carbonyl}phenyl)-N-[(3S)-1-(furan-2-ylcarbonyl)pyrrolidin-3-yl]pyrazine-2-carboxamide] |
| ≥ 10 | CNc1nccc(-c2nc(-c3cccc(C(=O)NCc4ccccc4)c3)cnc2N)n1 [Example 657, 3-{5-amino-6-[2-(methylamino)pyrimidin-4-yl]pyrazin-2-yl}-N-(phenylmethyl)benzamide] |

Same assay, conditions: read-out: Chk1 IC50

| Compound | IC50 [µM] |
| --- | --- |
| CNC(=O)c1nc(-c2ccsc2)cnc1N [Example 264, 3-amino-N-methyl-6-(3-thienyl)pyrazine-2-carboxamide] | 0.05 to 1 |
| CNC(=O)c1nc(-c2cccc(CNCc3ccc(Oc4ccccc4)cc3)c2)cnc1N [Example 397, 3-amino-N-methyl-6-{3-[({[4-(phenyloxy)phenyl]methyl}amino)methyl]phenyl}pyrazine-2-carboxamide] | 0.05 to 1 |

Results, then the molecule that gave them:

| IC50 [µM] | Compound |
| --- | --- |
| 0.05 to 1 | CNC(=O)c1nc(-c2cccc(C(=O)NCc3ccc(N4CCOCC4)cc3)c2)cnc1N [Example 343] |
| 0.05 to 1 | CNC(=O)c1nc(-c2cccc(NC(=O)Cc3ccc(Cl)c(Cl)c3)c2)cnc1N [Example 210, 3-amino-6-(3-{[(3,4-dichlorophenyl)acetyl]amino}phenyl)-N-methylpyrazine-2-carboxamide] |
| 0.05 to 1 | CNC(=O)c1nc(-c2cccc(NC(=O)c3ccccc3)c2)cnc1N [Example 81, 3-amino-N-methyl-6-{3-[(phenylcarbonyl)amino]phenyl}pyrazine-2-carboxamide] |
| 0.05 to 1 | CNC(=O)c1nc(-c2cccc(C(=O)NCc3ccc(F)c(F)c3)c2)cnc1N [Example 288, 3-amino-6-[3-({[(3,4-difluorophenyl)methyl]amino}carbonyl)phenyl]-N-methylpyrazine-2-carboxamide] |
| 0.05 to 1 | CNC(=O)c1nc(-c2cccc(C(=O)NCc3c(F)ccc(C)c3Cl)c2)cnc1N [Example 296, 3-amino-6-[3-({[(2-chloro-6-fluoro-3-methylphenyl)methyl]amino}carbonyl)phenyl]-N-methylpyrazine-2-carboxamide] |
